The text below walks through data of patent US20170349638A1, “COMPANION DIAGNOSTIC TOOL FOR PEPTIDOMIMETIC MACROCYCLES” (AILERON Therapeutics, Inc., priority 2016, published 2017).

pIC50, pKi: −log10 of the molar value. Read-outs that look alike come from different tables or passages of the source. Where a SMILES comes first, the peptide text is derived from it. Bridges are numbered along the chain shown (N, C = ends). [ ]: non-standard residue; d: D form. Trp(6-Cl) = N[C@@H](Cc1c[nH]c2cc(Cl)ccc12)C(=O)O; R8 = C=CCCCCCC[C@@](C)(N)C(=O)O; S5 = C=CCCC[C@](C)(N)C(=O)O; Ac3c = NC1(C(=O)O)CC1

In assay [1] the test system is Caspase 3 activation in SJSA1 cells. As to the kind of experiment: Caspase 3 detection assay. As to conditions: 48 h, Caspase 3 activation over DMSO-treated cells. Format: cell-based.
Protocol: Read on Synergy Biotek multiplate reader for luminescence. Data is analyzed as Caspase 3 activation over DMSO-treated cells.
For another assay, the system named is SJSA-1 cells. In words: Cell lysis by peptidomimetic macrocycles (LDH release). Format: cell-based. Particulars: 1 h incubation. (In general: LDH in the medium is a marker of cell lysis.)
The next assay addresses MDM2 (Homo sapiens, UniProt Q00987). In words: Competitive fluorescence polarization assay for MDM2. Format: binding. A general note: Polarisation of emitted light reports the rotation of a fluorescent probe.
In another assay the target is T1, MDMX (Homo sapiens, UniProt O15151).
T1 sequence (O15151 1-125): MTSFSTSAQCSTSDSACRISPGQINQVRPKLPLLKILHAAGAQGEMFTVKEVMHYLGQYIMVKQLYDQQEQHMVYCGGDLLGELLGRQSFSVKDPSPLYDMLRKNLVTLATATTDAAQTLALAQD
In words: Competitive fluorescence polarization assay MDMX. As to conditions: Table 26B; competitive FP. Format: binding.

The target in the next assay is HDM2 (Homo sapiens, UniProt Q00987). As to the kind of experiment: FP Competition Blinding Assay | HDM2 IC50 (nM).
Sequence of HDM2 (Q00987 whole entry, looked up): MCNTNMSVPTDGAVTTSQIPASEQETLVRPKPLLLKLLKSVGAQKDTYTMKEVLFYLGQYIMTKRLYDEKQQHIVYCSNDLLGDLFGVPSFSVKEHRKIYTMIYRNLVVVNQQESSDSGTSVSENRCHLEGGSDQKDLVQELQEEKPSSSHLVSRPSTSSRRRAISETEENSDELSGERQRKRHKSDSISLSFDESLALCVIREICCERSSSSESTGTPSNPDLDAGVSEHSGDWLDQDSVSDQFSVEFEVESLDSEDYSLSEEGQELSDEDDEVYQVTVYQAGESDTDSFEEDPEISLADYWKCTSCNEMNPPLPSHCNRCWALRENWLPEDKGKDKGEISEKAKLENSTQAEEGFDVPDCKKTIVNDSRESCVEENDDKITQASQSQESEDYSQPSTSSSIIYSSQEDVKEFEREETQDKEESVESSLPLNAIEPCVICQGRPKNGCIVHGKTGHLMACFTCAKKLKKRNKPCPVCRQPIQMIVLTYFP
The next assay has as its target HDMx (Homo sapiens, UniProt O15151). In words: FP Competition Blinding Assay | HDMx IC50 (nM).
Setting [2] is: Table 26B, competitive FP, read-out: Ki (MDM2).

As a reminder, the pIC50 is the IC50 on a negative log10 scale, so that one unit is a factor of ten. Low readings indicate a high IC50, high ones a low IC50. What is called pKi is the negative decadic logarithm of the Ki, by convention in mol/L.

Sequence of MDM2 (Q00987 1-125): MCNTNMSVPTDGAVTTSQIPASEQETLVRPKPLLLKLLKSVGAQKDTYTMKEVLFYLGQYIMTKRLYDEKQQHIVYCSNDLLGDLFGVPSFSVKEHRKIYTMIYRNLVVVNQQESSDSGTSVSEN
Sequence of HDMx (O15151 whole entry, looked up): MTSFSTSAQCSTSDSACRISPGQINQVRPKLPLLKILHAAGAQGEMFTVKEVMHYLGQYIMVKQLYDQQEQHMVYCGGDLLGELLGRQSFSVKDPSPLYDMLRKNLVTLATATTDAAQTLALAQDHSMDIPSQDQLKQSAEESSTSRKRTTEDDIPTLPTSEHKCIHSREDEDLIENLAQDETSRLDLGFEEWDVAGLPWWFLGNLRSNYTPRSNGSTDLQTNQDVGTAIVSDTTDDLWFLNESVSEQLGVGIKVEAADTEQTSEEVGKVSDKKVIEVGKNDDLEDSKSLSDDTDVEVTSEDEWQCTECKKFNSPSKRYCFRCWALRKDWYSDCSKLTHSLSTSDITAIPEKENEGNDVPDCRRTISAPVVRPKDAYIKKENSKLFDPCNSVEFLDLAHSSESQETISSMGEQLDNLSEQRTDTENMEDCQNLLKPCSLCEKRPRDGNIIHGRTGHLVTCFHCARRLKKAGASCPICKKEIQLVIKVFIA
Protocol for MDM2: Dilute 1 mM (in 100% DMSO) of FAM labeled linear peptide with DMSO to 100 μM (dilution 1:10). Then, dilute from 100 μM to 10 μM with water (dilution 1:10) and then dilute with FP buffer from 10 μM to 40 nM (dilution 1:250). This is the working solution which will be a 10 nM concentration in well (dilution 1:4). Keep the diluted FAM labeled peptide in the dark until use. • 4. […] Dilute 10 mM (in 100% DMSO) with DMSO to 5 mM (dilution 1:2). Then, dilute from 5 mM to 500 μM with H2O (dilution 1:10) and then dilute with FP buffer from 500 μM to 20 μM (dilution 1:25). […] Add 10 μl of 10 nM (4×) of FAM labeled peptide into each well and incubate for 3 hr to read.
Protocol for MDMX: Dilute MDMX (In-house, 40 kD) into FP buffer (High salt buffer—200 mM NaCl, 5 mM CHAPS, pH 7.5.) to make 300 nM (2×) working stock solution. • 2. Add 20 μl of 300 nM (2×) of protein stock solution into each well of 96-well black HE microplate (Molecular Devices) • 3. Dilute 1 mM (in 100% DMSO) of FAM labeled linear peptide with DMSO to 100 μM (dilution 1:10). Then, dilute from 100 μM to 10 μM with water (dilution 1:10) and then dilute with FP buffer from 10 μM to 40 nM (dilution 1:250). This is the working solution which will be a 10 nM concentration in well (dilution 1:4). Keep the diluted FAM labeled peptide in the dark until use. • 4. […] Dilute 10 mM (in 100% DMSO) with DMSO to 5 mM (dilution 1:2). Then, dilute from 5 mM to 500 μM with H2O (dilution 1:10) and then dilute with FP buffer from 500 μM to 20 μM (dilution 1:25). […] Transfer 10 μl of serial diluted unlabeled peptides to each well which is filled with 20 μl of 300 nM of protein. • 7. Add 10 μl of 10 nM (4×) of FAM labeled peptide into each well and incubate for 3 hr to read.
Protocol for SJSA-1 cells: On the day of the assay, media was exchanged with RPMI 1% FBS media, 90 μl of media per well.
10 mM stock solutions of the peptidomimetic macrocycles were prepared in 100% DMSO.
The negative control (non-lytic) sample was 0.5% DMSO alone and positive control (lytic) samples include 10 uM Melittin and 1% Triton X-100.
Cell plates were incubated for 1 hour at 37° C. After the 1 hour incubation, the morphology of the cells is examined by microscope and then the plates were centrifuged at 1200 rpm for 5 minutes at room temperature. 40 μl of supernatant for each peptidomimetic macrocyle and control sample is transferred to clear assay plates.

As for “287 (LTFAEYWAQAAAAIA; not fully specified; Ac, NH2, staple, difluoro-Phe, Cba; N-term Ac; MOD_RES (3)..(3): 3,4-difluoro-Phe; MOD_RES (4)..(4): Alpha-Me R-azide 1,4 triazole (6 carbon) alanine olefin amino acid connected by an all-carbon crosslinker comprising one double bond; misc_feature (4)..(11): C) [compound 287]”, the “caspase 0.3 uM” value in assay [1] (0.3 uM) is given as 1. In assay [1] (1 uM), the “caspase 1 uM” value was found to be 1. Also, the “caspase 3 uM” value in assay [1] (3 uM) was found to be 3. Further, the “caspase 10 uM” value in assay [1] (10 uM) worked out at 11. Moreover, the “caspase 30 uM” value in assay [1] (30 uM) is 23. Further, in the assay on SJSA-1 cells, the “6.25 uM % Lysed cells (1 h LDH)” value was 0%, the “25 uM % Lysed cells (1 h LDH)” value worked out at 11% and the “50 uM % Lysed cells (1 h LDH)” value is on record as 56%.
Turning to “413 (LTFAXYWAQLAAALA; not fully specified; Ac, NH2, staple, Cou4, Nle; N-term Ac; MOD_RES (4)..(4): Alpha-Me R-azide 1,4 triazole (6 carbon) alanine olefin amino acid connected by an all-carbon crosslinker comprising one double bond; misc_feature (4)..(11): Crosslink between residues; MOD_RES () [compound 413]”, in the assay with SJSA-1 cells, the “6.25 uM % Lysed cells (1 h LDH)” value was found to be 5%, the “25 uM % Lysed cells (1 h LDH)” value came to 3% and the “50 uM % Lysed cells (1 h LDH)” value was 3%.
With “414 (LTFAXYWAQLAAALA; not fully specified; Ac, NH2, staple, Cou4, Nle; N-term Ac; MOD_RES (4)..(4): Alpha-Me R-azide 1,4 triazole (6 carbon) alanine olefin amino acid connected by an all-carbon crosslinker comprising one double bond; misc_feature (4)..(11): Crosslink between residues; MOD_RES () [compound 414]”, in the assay on SJSA-1 cells, the “6.25 uM % Lysed cells (1 h LDH)” value came to 3%, the “25 uM % Lysed cells (1 h LDH)” value is given as 2% and the “50 uM % Lysed cells (1 h LDH)” value came out at 2%.
Turning to `CCCC[C@H](NC(=O)[C@H](C)NC(=O)[C@H](C)NC(=O)[C@]1(C)CCCc2cn(nn2)CCCCCC[C@@](C)(NC(=O)[C@H](Cc2ccccc2)NC(=O)[C@@H](NC(=O)[C@H](CC(C)C)NC(C)=O)[C@@H](C)O)C(=O)N[C@@H](C)C(=O)N[C@@H](Cc2ccc(O)cc2)C(=O)N[C@@H](Cc2c[nH]c3ccccc23)C(=O)N[C@@H](C)C(=O)N[C@@H](CCC(N)=O)C(=O)N[C@@H](CC(C)C)C(=O)N1)C(=O)N[C@@H](C)C(N)=O` [SP449, Ac-LTF$4rn6AYWAQL$4a5AANleA-NH2], the pIC50 is > 8.00 on MDM2 (Table 26B, competitive FP) and > 8.00 at MDMX. Moreover, the negative-log Ki (pKi) on MDM2 (setting [2]) and at MDMX was > 8.00 in each case.
For the molecule `CC(=O)N[C@@H](CC(C)C)C(=O)N[C@H](C(=O)N[C@@H](Cc1ccccc1)C(=O)N[C@]1(C)CCCCCCn2cc(nn2)CCC[C@@](C)(C(=O)N[C@@H](C)C(=O)N[C@@H](C)C(=O)N[C@@H](C)C(=O)N[C@@H](C)C(=O)N[C@@H](C)C(=O)N[C@H](C)C(N)=O)NC(=O)[C@H](CC(C)C)NC(=O)[C@H](CCC(N)=O)NC(=O)[C@H](C)NC(=O)[C@H](Cc2c[nH]c3ccccc23)NC(=O)[C@H](Cc2ccc(O)cc2)NC(=O)[C@H](CCC(=O)O)NC1=O)[C@@H](C)O` [SP451, Ac-LTF$4rn6EYWAQL$4a5AAAAAa-NH2], at MDM2, the negative logarithm of the Ki (pKi) was 7.00 to 8.00.
On to `CC(=O)N[C@@H](CC(C)C)C(=O)N[C@H](C(=O)N[C@@H](Cc1ccccc1)C(=O)N[C@]1(C)CCCCCCn2nncc2CCC[C@@](C)(C(=O)N[C@@H](CO)C(=O)N[C@@H](C)C(=O)N[C@@H](C)C(N)=O)NC(=O)[C@H](CC2CCC2)NC(=O)[C@H](CCC(N)=O)NC(=O)[C@H](C)NC(=O)[C@H](Cc2c[nH]c3ccccc23)NC(=O)[C@H](Cc2ccc(O)cc2)NC(=O)[C@H](CCC(=O)O)NC1=O)[C@@H](C)O` [SP456, Ac-LTF$5rn6EYWAQCba$5a5SAA-NH2], for which the pKi was > 8.00 on MDM2 (setting [2]) and 7.00 to 8.00 on MDMX.
In the case of `CC(=O)N[C@@H](CC(C)C)C(=O)N[C@H](C(=O)N[C@@H](Cc1ccccc1)C(=O)N[C@]1(C)CCCCCCn2nnc(c2I)CCC[C@@](C)(C(=O)N[C@@H](CO)C(=O)N[C@@H](C)C(=O)N[C@@H](C)C(N)=O)NC(=O)[C@H](CC2CCC2)NC(=O)[C@H](CCC(N)=O)NC(=O)[C@H](C)NC(=O)[C@H](Cc2c[nH]c3ccccc23)NC(=O)[C@H](Cc2ccc(O)cc2)NC(=O)[C@H](CCC(=O)O)NC1=O)[C@@H](C)O` [SP457, Ac-LTF$4rn6EYWAQCba5I-$4a5SAA-NH2], the negative-log Ki (pKi) at MDM2 (setting [2]) and at MDMX was > 8.00 each time.
As for `CC(=O)N[C@@H](CC(C)C)C(=O)N[C@H](C(=O)N[C@@H](C)C(=O)N[C@]1(C)CCCCCCn2nncc2CCC[C@@](C)(C(=O)N[C@@H](CO)C(=O)N[C@@H](C)C(=O)N[C@@H](C)C(N)=O)NC(=O)[C@H](CC2CCC2)NC(=O)[C@H](CCC(N)=O)NC(=O)[C@H](C)NC(=O)[C@H](Cc2c[nH]c3ccccc23)NC(=O)[C@H](Cc2ccc(O)cc2)NC(=O)[C@H](CCC(=O)O)NC1=O)[C@@H](C)O` [SP459, Ac-LTA$5rn6EYWAQCba$5a5SAA-NH2], the pKi at MDM2 (setting [2]) and at MDMX was < 6.00 in each case.
In the case of `CC(=O)N[C@@H](CC(C)C)C(=O)N[C@H](C(=O)N[C@@H](C)C(=O)N[C@]1(C)CCCCCCn2cc(nn2)CCC[C@@](C)(C(=O)N[C@@H](CO)C(=O)N[C@@H](C)C(=O)N[C@@H](C)C(N)=O)NC(=O)[C@H](CC2CCC2)NC(=O)[C@H](CCC(N)=O)NC(=O)[C@H](C)NC(=O)[C@H](Cc2c[nH]c3ccccc23)NC(=O)[C@H](Cc2ccc(O)cc2)NC(=O)[C@H](CCC(=O)O)NC1=O)[C@@H](C)O` [SP460, Ac-LTA$4rn6EYWAQCba$4a5SAA-NH2], the pKi on MDM2 (setting [2]) and on MDMX was < 6.00 in each case.
`CC(=O)N[C@@H](CC(C)C)C(=O)N[C@H](C(=O)N[C@@H](Cc1ccccc1)C(=O)N[C@]1(C)CCCCCCn2nnc(c2-c2ccccc2)CCC[C@@](C)(C(=O)N[C@@H](CO)C(=O)N[C@@H](C)C(=O)N[C@@H](C)C(N)=O)NC(=O)[C@H](CC2CCC2)NC(=O)[C@H](CCC(N)=O)NC(=O)[C@H](C)NC(=O)[C@H](Cc2c[nH]c3ccccc23)NC(=O)[C@H](Cc2ccc(O)cc2)NC(=O)[C@H](CCC(=O)O)NC1=O)[C@@H](C)O` [SP465, Ac-LTF$4rn6EYWAQCba5Ph-$4a5SAA-NH2]: the pKi at MDM2 (setting [2]) and at MDMX was > 8.00 throughout.
As for `CC(=O)N[C@@H](Cc1ccccc1)C(=O)N[C@]1(C)CCCCCCC=CCCC[C@@](C)(C(=O)N[C@@H](C)C(N)=O)NC(=O)[C@H](CC(C)C)NC(=O)C2(CC2)NC(=O)[C@H](CCC(=O)O)NC(=O)[C@H](Cc2c[nH]c3cc(Cl)ccc23)NC(=O)[C@H](Cc2ccc(O)cc2)NC(=O)[C@H](C)NC1=O` [SP-128, Ac- F $r8 A Y 6clW E Ac3c L $ A -NH2] (Ac-F[R8]AY[Trp(6-Cl)]E[Ac3c]L[S5]A-NH2; staple 2-9 (inferred)), the pIC50 at HDM2 is 6.94.
For the molecule `CC(=O)N[C@@H](CC(C)C)C(=O)N[C@H](C(=O)N[C@@H](Cc1ccccc1)C(=O)N[C@]1(C)CCCCCC/C=C/CCC[C@@](C)(C(=O)N[C@@H](CO)C(N)=O)NC(=O)[C@H](CC(C)C)NC(=O)[C@H](CCC(N)=O)NC(=O)[C@H](C)NC(=O)[C@H](Cc2c[nH]c3ccccc23)NC(=O)[C@H](Cc2ccc(O)cc2)NC(=O)[C@H](C)NC1=O)[C@@H](C)O` [SP-190, Ac- L T F $er8 A Y W A Q L $e S -NH2] (Ac-LTF[R8]AYWAQL[S5]S-NH2; staple (E) 4-11 (inferred)), the pIC50 is 7.13 on HDM2 and 7.01 at HDMx.
On to `CC(=O)N[C@@H](Cc1c[nH]c2ccccc12)C(=O)N[C@H](C(=O)N[C@@H](Cc1ccccc1)C(=O)N[C@]1(C)CCCCCCC=CCCC[C@@](C)(C(=O)N[C@@H](CO)C(N)=O)NC(=O)[C@H](CC(C)C)NC(=O)[C@H](CCC(N)=O)NC(=O)[C@H](C)NC(=O)[C@H](Cc2c[nH]c3ccccc23)NC(=O)[C@H](Cc2ccc(O)cc2)NC(=O)[C@H](Cc2c[nH]cn2)NC1=O)[C@@H](C)O` [SP-256, Ac- W T F $r8 H Y W A Q L $ S -NH2] (Ac-WTF[R8]HYWAQL[S5]S-NH2; staple 4-11 (inferred)), for which, on HDMx, the pIC50 was 6.69.
Same read-out and setting: the same measure for `CC(=O)N[C@@H](CC(C)C)C(=O)N[C@H](C(=O)N[C@@H](Cc1ccccc1)C(=O)N[C@]1(C)CCCCCCC=CCCC[C@@](C)(C(=O)N[C@@H](CO)C(N)=O)NC(=O)[C@H](CC(C)C)NC(=O)[C@H](CCC(N)=O)NC(=O)[C@H](C)NC(=O)[C@H](Cc2c[nH]c3ccccc23)NC(=O)[C@H](Cc2ccc(O)cc2)NC(=O)[C@H](C(C)C)NC1=O)[C@@H](C)O` [SP-266, Ac- L T F $r8 V Y W A Q L $ S -NH2] (Ac-LTF[R8]VYWAQL[S5]S-NH2; staple 4-11 (inferred)): 6.52.
`CC(=O)N[C@@H](CC(C)C)C(=O)N[C@H](C(=O)N[C@@H](Cc1ccccc1)C(=O)N[C@]1(C)CCCCCCC=CCCC[C@@](C)(C(=O)N[C@@H](CO)C(N)=O)NC(=O)[C@H](CC(C)C)NC(=O)[C@H](CCC(N)=O)NC(=O)[C@H](C)NC(=O)[C@H](Cc2c[nH]c3ccccc23)NC(=O)[C@H](Cc2ccc(O)cc2)NC(=O)[C@H](Cc2ccccc2)NC1=O)[C@@H](C)O` [SP-267, Ac- L T F $r8 F Y W A Q L $ S -NH2] (Ac-LTF[R8]FYWAQL[S5]S-NH2; staple 4-11 (inferred)) gave a pIC50 at HDM2 of 6.72.
